The nature of assay [1]: Ratio of thrombolytic enzyme plasmin to thrombin (FIIa) was evaluated.
Assay [2] addresses T1, Plasminogen (Homo sapiens, UniProt P00747). Kind of assay: In vitro inhibitory activity was evaluated against thrombolytic enzyme plasmin.
Another assay concerns the target Prothrombin (Homo sapiens, UniProt P00734). The assay can be described thus: In vitro inhibitory activity was evaluated against thrombin (FIIa).
The target in another assay is Serine protease 1 (Homo sapiens, UniProt P07477).
In assay [3] the target is T2, Coagulation factor X (Homo sapiens, UniProt P00742).
In assay [4] the target is T2, Coagulation factor X. The assay can be described thus: In vitro inhibitory activity was evaluated against thrombin factor Xa (FXa); Inactive.
In assay [5] the target is T1, Plasminogen. The assay can be described thus: In vitro inhibitory activity was evaluated against thrombolytic enzyme plasmin; Inactive.
The nature of assay [6]: Ratio of thrombin factor Xa (FXa) to thrombin (FIIa) was evaluated; Very high.

Results on five compounds are retold here after ChEMBL document CHEMBL1130963, “Design and construction of novel thrombin inhibitors featuring P3-P4 quaternary lactam dipeptide surrogates” (Bioorg Med Chem Lett, 1998).

pIC50: −log10 of the molar value. Where only a bound is given, the exact number is not on record here.

T1 sequence (P00747 97-580 limits assumed): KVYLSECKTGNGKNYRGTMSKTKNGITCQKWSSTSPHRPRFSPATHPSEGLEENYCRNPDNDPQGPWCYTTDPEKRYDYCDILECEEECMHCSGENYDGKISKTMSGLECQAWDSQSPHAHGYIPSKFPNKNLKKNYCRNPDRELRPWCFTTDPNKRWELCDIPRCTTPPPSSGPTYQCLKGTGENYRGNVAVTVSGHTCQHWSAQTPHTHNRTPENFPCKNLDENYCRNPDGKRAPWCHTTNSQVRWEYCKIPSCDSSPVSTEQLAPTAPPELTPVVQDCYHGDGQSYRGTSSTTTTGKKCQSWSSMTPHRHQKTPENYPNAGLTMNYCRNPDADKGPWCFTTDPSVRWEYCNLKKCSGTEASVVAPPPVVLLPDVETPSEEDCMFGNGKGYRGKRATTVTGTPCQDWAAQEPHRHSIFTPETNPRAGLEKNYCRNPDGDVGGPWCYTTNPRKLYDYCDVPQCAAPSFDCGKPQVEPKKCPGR
T1 sequence (P00747 581-810 limits assumed): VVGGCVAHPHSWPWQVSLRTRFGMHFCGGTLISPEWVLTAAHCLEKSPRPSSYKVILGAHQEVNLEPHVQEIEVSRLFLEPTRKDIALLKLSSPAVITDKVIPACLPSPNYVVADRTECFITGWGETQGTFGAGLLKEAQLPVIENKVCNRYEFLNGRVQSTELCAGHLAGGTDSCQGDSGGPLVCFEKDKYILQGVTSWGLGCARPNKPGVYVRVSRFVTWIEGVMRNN
Serine protease 1, sequence (P07477 whole entry): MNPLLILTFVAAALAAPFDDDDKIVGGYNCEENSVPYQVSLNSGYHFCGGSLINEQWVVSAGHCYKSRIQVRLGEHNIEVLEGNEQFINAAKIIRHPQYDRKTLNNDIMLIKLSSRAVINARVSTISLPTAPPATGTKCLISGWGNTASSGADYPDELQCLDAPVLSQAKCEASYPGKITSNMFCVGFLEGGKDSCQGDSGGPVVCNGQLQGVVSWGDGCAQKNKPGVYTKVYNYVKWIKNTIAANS
T2 sequence (P00742 41-179 limits assumed): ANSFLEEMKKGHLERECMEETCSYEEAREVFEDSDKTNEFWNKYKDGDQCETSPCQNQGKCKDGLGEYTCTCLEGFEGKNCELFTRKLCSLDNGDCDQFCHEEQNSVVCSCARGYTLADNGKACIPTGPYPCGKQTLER
T2 sequence (P00742 235-488 limits assumed): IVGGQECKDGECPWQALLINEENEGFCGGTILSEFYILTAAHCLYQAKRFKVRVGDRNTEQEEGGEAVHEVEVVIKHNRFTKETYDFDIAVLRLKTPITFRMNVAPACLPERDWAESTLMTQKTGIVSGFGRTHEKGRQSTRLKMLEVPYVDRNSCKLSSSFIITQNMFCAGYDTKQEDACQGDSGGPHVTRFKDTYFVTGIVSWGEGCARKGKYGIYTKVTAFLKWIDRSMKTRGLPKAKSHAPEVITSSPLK

Consider `N=C(N)N1CCC[C@H](NC(=O)CN2CCC[C@H](NS(=O)(=O)Cc3ccccc3)C2=O)C1O` (stereo partly drawn), for which the Ratio in assay [1] worked out at 128. This compound had a pIC50 against Plasminogen [2] below 5.60.
With `CCOC(=O)[C@]1(NS(=O)(=O)Cc2ccccc2)CCCN(CC(=O)N[C@H]2CCCN(C(=N)N)[C@@H]2O)C1=O`, in assay [1], the Ratio turned out to be 1.8. For the same compound, the pIC50 against Prothrombin is 8.96; against Plasminogen [2], 6.57; on Serine protease 1, 8.70; at Coagulation factor X [3], 8.24.
In the case of `CCOC(=O)[C@]1(NS(=O)(=O)Cc2ccccc2)CCCN(CC(=O)N[C@H]2CCCN(C(=N)N)[C@H]2O)C1=O`, the Ratio in assay [1] amounted to 3.1. The pIC50 against Prothrombin was 7.19; against Plasminogen [2], below 5.60; against Serine protease 1, 6.69; at Coagulation factor X [3] it was 7.36.
Regarding `N=C(N)N1CCC[C@H](NC(=O)CN2CCC[C@@](N)(Cc3ccccc3)C2=O)[C@H]1O`, the IC50 result against Coagulation factor X [4] and at Plasminogen [5] was “Not Active” throughout. The Ratio was 67.1 in assay [1] and “Very high” in assay [6]. For the same compound, the values for the pIC50 against Prothrombin and against Serine protease 1 were 8.68 and 6.86, respectively.
For the compound `N=C(N)N1CCC[C@H](NC(=O)CN2CCC[C@@](N)(Cc3ccccc3)C2=O)[C@@H]1O`, the IC50 entry against Coagulation factor X [4] and on Plasminogen [5] was “Not Active” throughout. For the same compound, the Ratio in assay [1] is 18.2. The negative-log IC50 (pIC50) was 6.86 at Prothrombin and 5.60 at Serine protease 1.
